Test results taken from patent publication US9346776B2, “Fused heterocyclic compound” (Takeda Pharmaceutical Company Limited, priority 2014, dated 2016).

Assays:
[1] = molecular target: T1, Human recombinant enteropeptidase (Homo sapiens, UniProt P98073); assay: Human enteropeptidase inhibitory activity; type: biochemical; settings: 3.3 uM compound; fluorescence 2 hours after start of reaction; read-out: Inhibition rate at 3.3 uM (%)
T1 construct: purchased ITSI-Biosciences, LLC #REN-260
Protocol: Test Example 1 Human enteropeptidase inhibitory activity Human recombinant enteropeptidase (#REN-260, ITSI-Biosciences, LLC) was diluted with an assay buffer (50 mM Tricine (pH 8.0), 0.01 (w/v) % Tween 20, 10 mM CaCl2) to prepare a 24 mU/mL enzyme solution. Subsequently, 5FAM-Abu-Gly-Asp-Asp-Asp-Lys-Ile-Val-Gly-Gly-Lys(CPQ2)-Lys-Lys-NH2 (purity: 97.2%, CPC Scientific, Inc.) produced according to a synthesis method known per se was diluted with an assay buffer to prepare a 2.1 uM (“u” represents “micro”) substrate solution. Each test compound was dissolved in DMSO to prepare a 1 mM solution, which was then diluted 100-fold with an assay buffer to prepare a compound solution. The compound solution (5 uL/well) and the substrate solution (5 uL/well) were added to a 384-well black plate (#784076, Greiner Bio-One) and mixed. Then, the enzyme solution (5 uL/well) was added to the plate and mixed to start reaction. The fluorescence intensity was measured at an excitation wavelength of 485 nm and a fluorescence wavelength of 535 nm using a fluorescence plate reader EnVision (PerkinElmer Inc.). Also, the same reaction as above was performed except that the test compound was not added (test compound non-supplemented group). In addition, the same reaction as above was performed except that neither the test compound nor the enzyme was added (control group). The inhibition rate was calculated from the fluorescence intensity 2 hours after the start of the reaction according to the following equation: Inhibition rate (%)=(1−(Fluorescence intensity of the test compound supplemented group−Fluorescence intensity of the control group)/(Fluorescence intensity of the test compound non-supplemented group−Fluorescence intensity of the control group))×100

Male ob/ob mice = assay: Hypoglycemic action on diabetes mellitus animal model (2-week continuous administration); type: in vivo, mouse; settings: feed containing 0.03% compound for 2 weeks, mean ± SD
Description: Test Example 4 Hypoglycemic action on diabetes mellitus animal model (2-week continuous administration) Male ob/ob mice (6 weeks old) were used to prepare two groups each involving 5 individuals. One of the groups was fed as a control with feed free from a compound for 2 weeks, while the other group to receive compound treatment was fed with feed containing a compound at a concentration of 0.03% for 2 weeks. After 2 weeks, blood was collected from the tail vein of each mouse, and a diabetes mellitus-ameliorating action brought about by the compound treatment was evaluated. Blood glucose levels were measured using Hitachi automatic analyzer model 7180 (Hitachi, Ltd.), and glycated hemoglobin levels were measured using Tosoh automatic glycohemoglobin analyzer HLC-723G8 (Tosoh Corp.). The blood glucose and glycated hemoglobin levels of each group after the 2-week administration are indicated by mean±standard deviation in Table 6.

[2] = tested on: high fat diet-fed (HFD-fed) mouse; assay: Test on elevation of protein concentration in feces using HFD-fed mouse; type: in vivo; settings: 10 mg/kg oral, feces recovered at day 1, mean ± SD, 5 mice
Protocol: Test Example 2 Test on elevation of protein concentration in feces using HFD-fed mouse A 0.5% methylcellulose suspension (test compound administered group, 5 mice per group) containing each test compound (10 mg/kg) or a 0.5% methylcellulose suspension (test compound non-administered group (vehicle), 5 mice per group) was orally administered to each high fat diet-fed (HFD-fed) mouse (D12079B diet, male, 18 weeks old), and the whole feces were recovered at day 1 of administration. The dry feces were dissolved in a 0.5 N aqueous sodium hydroxide solution. After centrifugation at 12,000 rpm, a protein concentration was quantified (Lowry method) using the supernatant to calculate a protein concentration (mg/g feces) in 1 g of feces. The mean and standard deviation of each group are shown below.

[3] = tested on: diet-induced obesity (DIO) mouse; assay: Test on antiobesity action using DIO mouse; type: in vivo; settings: mean ± SD; for Body weight(g) At start of administration: baseline
Protocol: Test Example 3 Test on antiobesity action using DIO mouse A 0.5% methylcellulose suspension (test compound administered group, 5 or 6 mice per group) containing each test compound (20 or 60 mg/kg) or a 0.5% methylcellulose suspension (test compound non-administered group (vehicle), 6 mice per group) was orally administered to each diet-induced obesity (DIO) mouse (D12079B diet, male, 46 weeks old) once a day for 4 weeks. The means of body weights and standard deviations at the start of administration and after 4-week continuous administration are shown below.

[4] = 20 mg/kg oral once a day for 4 weeks
[5] = 60 mg/kg oral once a day for 4 weeks

T1 sequence (P98073 whole entry): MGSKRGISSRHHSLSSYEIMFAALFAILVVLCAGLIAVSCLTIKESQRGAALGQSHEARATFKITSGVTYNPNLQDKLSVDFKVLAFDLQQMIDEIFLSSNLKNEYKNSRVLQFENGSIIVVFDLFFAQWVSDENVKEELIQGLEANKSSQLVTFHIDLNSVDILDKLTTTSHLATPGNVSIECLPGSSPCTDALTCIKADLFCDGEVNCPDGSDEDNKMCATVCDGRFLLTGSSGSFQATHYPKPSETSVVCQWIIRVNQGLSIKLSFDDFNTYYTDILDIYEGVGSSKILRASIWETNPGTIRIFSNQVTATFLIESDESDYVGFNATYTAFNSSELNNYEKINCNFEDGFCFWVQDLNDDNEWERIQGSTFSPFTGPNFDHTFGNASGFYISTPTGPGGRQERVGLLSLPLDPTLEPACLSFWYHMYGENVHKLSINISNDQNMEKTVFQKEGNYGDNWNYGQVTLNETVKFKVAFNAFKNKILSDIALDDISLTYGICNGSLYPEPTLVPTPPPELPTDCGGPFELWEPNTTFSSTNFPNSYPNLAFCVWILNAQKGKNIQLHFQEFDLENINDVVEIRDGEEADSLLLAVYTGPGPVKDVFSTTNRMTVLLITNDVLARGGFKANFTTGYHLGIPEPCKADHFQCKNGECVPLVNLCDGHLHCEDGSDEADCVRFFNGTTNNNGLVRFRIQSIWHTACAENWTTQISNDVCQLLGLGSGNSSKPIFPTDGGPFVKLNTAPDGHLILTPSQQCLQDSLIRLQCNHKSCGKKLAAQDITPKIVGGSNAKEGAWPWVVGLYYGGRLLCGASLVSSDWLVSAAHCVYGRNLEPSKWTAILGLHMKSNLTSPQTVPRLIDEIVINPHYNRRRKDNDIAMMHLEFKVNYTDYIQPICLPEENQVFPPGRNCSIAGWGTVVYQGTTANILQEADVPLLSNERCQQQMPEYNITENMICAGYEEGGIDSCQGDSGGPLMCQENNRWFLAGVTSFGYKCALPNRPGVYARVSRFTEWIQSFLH

SMILES: Cc1cc(OC(=O)c2ccc(NC(=N)N)cc2)cc2c1C(CC(=O)N[C@@H](CC(=O)O)C(=O)O)CO2 (stereo partly drawn) [Example 3, N-((6-((4-Carbamimidamidobenzoyl)oxy)-4-methyl-2,3-dihydro-1-benzofuran-3-yl)acetyl)-L-aspartic acid]
- inhibition at 3.3 µM [1]: 100%

SMILES: N=C(N)Nc1ccc(C(=O)Oc2ccc3c(c2)OC[C@@H]3CC(=O)N[C@H](CC(=O)O)C(=O)O)cc1 [Example 5, N-(((3R)-6-((4-carbamimidamidobenzoyl)oxy)-2,3-dihydro-1-benzofuran-3-yl)acetyl)-D-aspartic acid]
- inhibition at 3.3 µM [1]: 101%

SMILES: N=C(N)Nc1ccc(C(=O)Oc2ccc3c(c2)OC[C@@H]3CC(=O)N(CCC(=O)O)CCC(=O)O)cc1 [Example 9, 3,3′-((((3R)-6-((4-carbamimidamidobenzoyl)oxy)-2,3-dihydro-1-benzofuran-3-yl)acetyl)imino)dipropanic acid]
- inhibition at 3.3 µM [1]: 100%

SMILES: N=C(N)Nc1ccc(C(=O)Oc2ccc3c(c2)OC[C@@H]3CC(=O)N(CC(=O)O)CC(=O)O)cc1 [Example 8, 2,2′-((((3R)-6-((4-carbamimidamidobenzoyl)oxy)-2,3-dihydro-1-benzofuran-3-yl)acetyl)imino)diacetic acid]
- inhibition at 3.3 µM [1]: 100%

SMILES: N=C(N)Nc1ccc(C(=O)Oc2cc(F)c3c(c2)OCC3CC(=O)N[C@@H](CC(=O)O)C(=O)O)cc1 (stereo partly drawn) [Example 10, N-((6-((4-Carbamimidamidobenzoyl)oxy)-4-fluoro-2,3-dihydro-1-benzofuran-3-yl)acetyl)-L-aspartic acid]
- inhibition at 3.3 µM [1]: 100%

SMILES: N=C(N)Nc1ccc(C(=O)Oc2ccc3c(c2)OC[C@H]3CC(=O)N[C@@H](CC(=O)O)C(=O)O)cc1 [Example 12, N-(((3S)-6-((4-Carbamimidamidobenzoyl)oxy)-2,3-dihydro-1-benzofuran-3-yl)acetyl)-L-aspartic acid hydrate]
- Blood glucose level (Male ob/ob mice): 144.2 ± 19.5 mg/dL
- Glycated hemoglobin level (%) (Male ob/ob mice): 3.5 ± 0.1%

SMILES: N=C(N)Nc1ccc(C(=O)Oc2ccc3c(c2)OC[C@H]3CC(=O)N[C@H](CC(=O)O)C(=O)O)cc1 [Example 4, N-(((3S)-6-((4-carbamimidamidobenzoyl)oxy)-2,3-dihydro-1-benzofuran-3-yl)acetyl)-D-aspartic acid]
- inhibition at 3.3 µM [1]: 100%

SMILES: Cc1c(OC(=O)c2ccc(NC(=N)N)cc2)ccc2c1OCC2CC(=O)N[C@@H](CC(=O)O)C(=O)O (stereo partly drawn) [Example 11, N-((6-((4-carbamimidamidobenzoyl)oxy)-7-methyl-2,3-dihydro-1-benzofuran-3-yl)acetyl)-L-aspartic acid]
- inhibition at 3.3 µM [1]: 98%

SMILES: N=C(N)Nc1ccc(C(=O)Oc2ccc3c(c2)OC[C@H]3CC(=O)N[C@@H](CC(=O)O)C(=O)O)cc1 [Example 1, N-(((3S)-6-((4-Carbamimidamidobenzoyl)oxy)-2,3-dihydro-1-benzofuran-3-yl)acetyl)-L-aspartic acid]
- Protein concentration in feces (mg/g feces) [2]: 177.6 ± 35.2 mg/g feces
- inhibition at 3.3 µM [1]: 101%
- Body weight(g) After 4-week continous administration [3, 4]: 43.8 ± 1.7 g
- Body weight(g) At start of administration ([3]; 20 mg/kg oral once a day): 48.3 ± 2.0 g
- Body weight(g) After 4-week continous administration [3, 5]: 41.7 ± 2.8 g
- Body weight(g) At start of administration ([3]; 60 mg/kg oral once a day): 49.5 ± 2.2 g

SMILES: N=C(N)Nc1ccc(C(=O)Oc2ccc3c(c2)OC[C@H]3CC(=O)N[C@@H](CCC(=O)O)C(=O)O)cc1 [Example 7]
- inhibition at 3.3 µM [1]: 101%

SMILES: N=C(N)Nc1ccc(C(=O)Oc2ccc3c(c2)OC[C@@H]3CC(=O)N[C@@H](CCC(=O)O)C(=O)O)cc1 [Example 6, N-(((3R)-6-((4-carbamimidamidobenzoyl)oxy)-2,3-dihydro-1-benzofuran-3-yl)acetyl)-L-glutamic acid]
- inhibition at 3.3 µM [1]: 101%

SMILES: N=C(N)Nc1ccc(C(=O)Oc2ccc3c(c2)OC[C@@H]3CC(=O)N[C@@H](CC(=O)O)C(=O)O)cc1 [Example 2, N-(((3R)-6-((4-Carbamimidamidobenzoyl)oxy)-2,3-dihydro-1-benzofuran-3-yl)acetyl)-L-aspartic acid]
- Protein concentration in feces (mg/g feces) [2]: 149.8 ± 24.4 mg/g feces
- inhibition at 3.3 µM [1]: 101%
- Body weight(g) After 4-week continous administration [3, 4]: 46.0 ± 2.8 g
- Body weight(g) At start of administration ([3]; 20 mg/kg oral once a day): 49.6 ± 2.6 g
- Body weight(g) After 4-week continous administration [3, 5]: 44.4 ± 4.5 g
- Body weight(g) At start of administration ([3]; 60 mg/kg oral once a day): 49.8 ± 2.8 g
